Assay results: patent US12398107B2, “Fungicidal nitroanilino substituted pyrazoles” (FMC Corporation, priority 2018, dated 2025)

Experiments:
Assay type in all cases: in vivo
Septoria tritici = assay: Test A: wheat leaf blotch, preventive spray on wheat seedlings; settings: 100 = 100% disease control, 0 = no control relative to controls; for Test A disease control rating (wheat leaf blotch) / pest or weed control at 50 ppm: 50 ppm; for pest or weed control at 50 ppm / pest or weed control at 10 ppm: Zymoseptoria tritici, read-out: Test A disease control rating (wheat leaf blotch)
In short: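 Compounds were suspended in acetone/water (50/50) with 250 ppm PEG400 and sprayed to run-off on wheat seedlings. The next day the seedlings were inoculated with Septoria tritici spores, held 48 h at 24 °C in saturated humidity, then 17 days at 20 °C. Disease control was rated 0–100 relative to controls.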

[1] = test system: Puccinia recondita f. sp. tritici; assay: Test B: wheat leaf rust, preventive spray on wheat seedlings; settings: 100 = 100% disease control, 0 = no control relative to controls; for Test B disease control rating (wheat leaf rust) / pest or weed control at 50 ppm: 50 ppm; for pest or weed control at 50 ppm / pest or weed control at 10 ppm: read-out: Test B disease control rating (wheat leaf rust)
In short: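 Compounds in acetone/water (50/50) with 250 ppm PEG400, sprayed to run-off on wheat seedlings at stated ppm; inoculated next day with P. recondita spores. Held 24 h saturated at 20° C., then 7 days in growth chamber at 20° C.; rating 0–100 = % disease control vs controls.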

[2] = test system: Blumeria graminis f. sp. tritici; assay: Test C: wheat powdery mildew, preventive spray on wheat seedlings; settings: rated after 8 days, 100 = 100% disease control, 0 = no control; for Test C disease control rating (wheat powdery mildew) / pest or weed control at 50 ppm: 50 ppm; for pest or weed control at 50 ppm / pest or weed control at 10 ppm: Blumeria graminis, 192 h, read-out: Test C disease control rating (wheat powdery mildew)
In short: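 Compound dissolved in acetone (3% of final volume), then suspended in 50/50 acetone/water with 250 ppm PEG400 and sprayed to run-off on wheat seedlings. Inoculated next day with B. graminis f. sp. tritici spore dust, kept 8 days at 20° C; visual rating, 100 = full control, 0 = none, relative to controls.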

Phakopsora pachyrhizi = assay: Test D: Asian soybean rust, preventive spray on soybean seedlings; settings: 100 = 100% disease control, 0 = no control; for Test D disease control rating (Asian soybean rust) / pest or weed control at 50 ppm: 50 ppm; for pest or weed control at 50 ppm / pest or weed control at 10 ppm: Phakopsora pachyrhizi, read-out: Test D disease control rating (Asian soybean rust)
In short: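 Soybean seedlings sprayed to run-off with compound suspension (ppm, in 50/50 acetone/water with 250 ppm PEG400), inoculated next day with P. pachyrhizi spores, held 24 h saturated at 22°C then 8 days at 22°C. Visual rating 0-100% disease control relative to controls.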

Botrytis cinerea = assay: Test E: tomato Botrytis, preventive spray on tomato seedlings; settings: 100 = 100% disease control, 0 = no control; for Test E disease control rating (tomato Botrytis) / pest or weed control at 50 ppm: 50 ppm; for pest or weed control at 50 ppm / pest or weed control at 10 ppm: Botrytis cinerea, read-out: Test E disease control rating (tomato Botrytis)
In short: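 Tomato seedlings sprayed to run-off with compound (ppm) in acetone/water with 250 ppm PEG400, then inoculated next day with B. cinerea spores. Held 48 h at 20 °C in saturated atmosphere, then 3 days at 24 °C. Visual rating 0–100% disease control relative to untreated controls.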

Alternaria solani = assay: Test F: tomato early blight, preventive spray on tomato seedlings; settings: 100 = 100% disease control, 0 = no control; for Test F disease control rating (tomato early blight) / pest or weed control at 50 ppm: 50 ppm; for pest or weed control at 50 ppm / pest or weed control at 10 ppm: Alternaria solani, read-out: Test F disease control rating (tomato early blight)
In short: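 Compounds in acetone/water (50/50) with 250 ppm PEG400, dosed in ppm, sprayed to run-off on tomato seedlings; next day inoculated with A. solani spores. Held 48 h saturated at 27° C, then 3 days at 20° C; visual rating 0–100% disease control relative to controls.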

| SMILES | Test A disease control rating (wheat leaf blotch) (Septoria tritici) [%] | Test B disease control rating (wheat leaf rust) [1] [%] | Test C disease control rating (wheat powdery mildew) [2] [%] | Test D disease control rating (Asian soybean rust) (Phakopsora pachyrhizi) [%] | Test E disease control rating (tomato Botrytis) (Botrytis cinerea) [%] | Test F disease control rating (tomato early blight) (Alternaria solani) [%] | pest or weed control at 50 ppm (Septoria tritici) [%] | pest or weed control at 50 ppm [1] [%] | pest or weed control at 50 ppm [2] [%] | pest or weed control at 50 ppm (Phakopsora pachyrhizi) [%] | pest or weed control at 50 ppm (Botrytis cinerea) [%] | pest or weed control at 50 ppm (Alternaria solani) [%] | pest or weed control at 10 ppm (Septoria tritici) [%] | pest or weed control at 10 ppm [1] [%] | pest or weed control at 10 ppm [2] [%] | pest or weed control at 10 ppm (Phakopsora pachyrhizi) [%] | pest or weed control at 10 ppm (Botrytis cinerea) [%] | pest or weed control at 10 ppm (Alternaria solani) [%] |
| --- | --- | --- | --- | --- | --- | --- | --- | --- | --- | --- | --- | --- | --- | --- | --- | --- | --- | --- |
| Cc1nn(C)c(Nc2c(Cl)cc(F)cc2[N+](=O)[O-])c1-c1c(F)cccc1F [Compound 76] | 100 | 99 | 95 | 25 | 87 | 0 | – | – | – | – | – | – | – | – | – | – | – | – |
| Cc1nn(C)c(Nc2c(F)cc(F)cc2[N+](=O)[O-])c1-c1c(F)cccc1Cl [Compound 39] | 100 | 100 | 99 | 73 | 88 | 99 | – | – | – | – | – | – | – | – | – | – | – | – |
| Cc1nn(C)c(Nc2c(F)cccc2[N+](=O)[O-])c1-c1c(F)cc(F)cc1F [Compound 62] | 100 | 100 | 100 | 100 | 99 | 99 | – | – | – | – | – | – | – | – | – | – | – | – |
| Cc1nn(C)c(Nc2c(F)cccc2[N+](=O)[O-])c1-c1ccc(C#N)cc1Cl [Compound 113, 3-chloro-4-[5-[(2-fluoro-6-nitrophenyl)amino]-1,3-dimethyl-1H-pyrazol-4-yl]benzonitrile] | – | – | – | – | – | – | 100 | 99 | 97 | 13 | 99 | 99 | – | – | – | – | – | – |
| COc1cc(Cl)c(Nc2c(-c3ccc(F)cc3Cl)c(C)nn2C)c([N+](=O)[O-])c1 [Compound 80] | 100 | 100 | 97 | 50 | 95 | 98 | – | – | – | – | – | – | – | – | – | – | – | – |
| COc1cc(F)c(Nc2c(-c3ccc(F)cc3Br)c(C)nn2C)c([N+](=O)[O-])c1 [Compound 165] | 99 | 100 | 98 | 94 | 100 | 100 | – | – | – | – | – | – | – | – | – | – | – | – |
| Cc1nn(C)c(Nc2c(F)cccc2[N+](=O)[O-])c1-c1ccc(F)cc1Cl [Compound 112, 4-(2-chloro-4-fluorophenyl)-N-(2-fluoro-6-nitrophenyl)-1,3-dimethyl-1H-pyrazol-5-amine] | – | – | – | – | – | – | 88 | 100 | 100 | 99 | 100 | 100 | 72 | 100 | 98 | 52 | 100 | 98 |
| Cc1nn(C)c(Nc2ccccc2[N+](=O)[O-])c1-c1c(F)cc(Cl)cc1F [Compound 168] | 100 | 74 | 97 | 0 | 99 | 40 | – | – | – | – | – | – | – | – | – | – | – | – |
| Cc1nn(C)c(Nc2c(Br)cccc2[N+](=O)[O-])c1-c1ccc(F)cc1Cl [Compound 110] | 100 | 98 | 56 | 73 | 99 | 0 | – | – | – | – | – | – | – | – | – | – | – | – |
| Cc1nn(C)c(Nc2c(F)cccc2[N+](=O)[O-])c1-c1ccc(F)cc1Br [Compound 60, 4-(2-bromo-4-fluorophenyl)-N-(2-fluoro-6-nitrophenyl)-1,3-dimethyl-1H-pyrazol-5-amine] | – | – | – | – | – | – | 100 | 100 | 100 | 97 | 99 | 99 | 99 | 100 | 85 | 0 | 99 | 75 |
| CCc1nn(C)c(Nc2ccc(C)cc2[N+](=O)[O-])c1-c1ccc(F)cc1F [Compound 175] | 100 | 86 | 79 | 0 | 88 | 0 | – | – | – | – | – | – | – | – | – | – | – | – |
| COc1ccc(Nc2c(-c3ccc(F)cc3Cl)c(C)nn2C)c([N+](=O)[O-])c1 [Compound 119] | 100 | 100 | 99 | 92 | 100 | 99 | – | – | – | – | – | – | – | – | – | – | – | – |
| Cc1cccc([N+](=O)[O-])c1Nc1c(-c2ccc(F)cc2F)c(C)nn1C [Compound 177] | 100 | 97 | 50 | 0 | 100 | 9 | – | – | – | – | – | – | – | – | – | – | – | – |
| Cc1nn(C)c(Nc2ccccc2[N+](=O)[O-])c1-c1c(F)cccc1Cl [Compound 136] | 100 | 80 | 88 | 0 | 99 | 0 | – | – | – | – | – | – | – | – | – | – | – | – |
| Cc1nn(C)c(Nc2c(Cl)cccc2[N+](=O)[O-])c1-c1c(F)cc(F)cc1Br [Compound 163] | 99 | 100 | 98 | 78 | 88 | 76 | – | – | – | – | – | – | – | – | – | – | – | – |
| COc1cc(F)c(Nc2c(-c3ccc(Cl)cc3Cl)c(C)nn2C)c([N+](=O)[O-])c1 [Compound 138] | 100 | 100 | 93 | 67 | 99 | 100 | – | – | – | – | – | – | – | – | – | – | – | – |
| Cc1nn(C)c(Nc2c(Cl)cccc2[N+](=O)[O-])c1-c1ccc(F)cc1F [Compound 79] | 100 | 100 | 91 | 44 | 98 | 0 | – | – | – | – | – | – | – | – | – | – | – | – |
| Cc1nn(C)c(Nc2c(Cl)cc(F)cc2[N+](=O)[O-])c1-c1ccc(F)cc1Cl [Compound 19, N-(2-chloro-4-fluoro-6-nitrophenyl)-4-(2-chloro-4-fluorophenyl)-1,3-dimethyl-1H-pyrazol-5-amine] | – | – | – | – | – | – | 100 | 100 | 100 | 98 | 100 | 99 | – | – | – | – | – | – |
